{"source": "patent US10759783B2", "about": "“Biaryl inhibitors of Bruton'S tyrosine kinase” (BIOGEN MA INC., priority 2013, dated 2020)", "key": {"BTK enzyme": {"molecular_target": "T1, BTK enzyme (Homo sapiens, UniProt Q06187)", "T1 construct": "purchased Upstate 14-552", "T1 sequence (Q06187 whole entry)": "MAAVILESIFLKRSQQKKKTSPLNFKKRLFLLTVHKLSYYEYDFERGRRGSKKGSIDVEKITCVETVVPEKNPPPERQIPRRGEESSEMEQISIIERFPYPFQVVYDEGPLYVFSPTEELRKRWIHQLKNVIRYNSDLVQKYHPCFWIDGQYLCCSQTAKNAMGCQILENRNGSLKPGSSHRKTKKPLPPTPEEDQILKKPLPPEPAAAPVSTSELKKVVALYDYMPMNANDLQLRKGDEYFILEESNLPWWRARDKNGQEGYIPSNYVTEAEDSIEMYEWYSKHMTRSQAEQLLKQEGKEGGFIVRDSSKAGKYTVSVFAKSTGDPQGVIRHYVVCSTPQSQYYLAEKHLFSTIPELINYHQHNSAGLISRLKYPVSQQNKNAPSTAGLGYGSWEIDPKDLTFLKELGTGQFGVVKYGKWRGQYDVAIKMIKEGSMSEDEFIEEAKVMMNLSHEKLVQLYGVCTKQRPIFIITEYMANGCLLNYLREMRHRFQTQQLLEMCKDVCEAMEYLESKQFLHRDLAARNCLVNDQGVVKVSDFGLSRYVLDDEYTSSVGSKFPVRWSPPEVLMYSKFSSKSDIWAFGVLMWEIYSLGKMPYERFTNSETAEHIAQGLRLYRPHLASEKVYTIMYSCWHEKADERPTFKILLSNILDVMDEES", "experiment": "In vitro BTK kinase assay: BTK-POLYGAT-LS assay", "format": "biochemical", "details": "ATP 10 μM, read-out: IC50 (10uMATP)", "in_short": "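Human BTK activity was measured with final 10 μM ATP and 100 nM polyGAT substrate in pH 7.5 Tris buffer with 10 mM MgCl2, DTT, Triton X-100 and casein.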"}, "[1]": {"molecular_target": "BTK (phospho-BTK) in human whole blood (Homo sapiens, UniProt Q06187)", "sequence (Q06187 whole entry)": "as above", "experiment": "In vitro PD assay in human whole blood (pBTK assay)"}}, "note": "pIC50: −log10 of the molar value.", "data": [{"smiles": "Cc1cc(-c2cc(Nc3cc4n(n3)CCN(C)C4)ncn2)ccc1CNC(=O)N1CC[C@@H](C(C)(C)C)C1", "note": "[Example I-244, (S)-3-(tert-butyl)-N-(2-methyl-4-(6-((5-methyl-4,5,6,7-tetrahydropyrazolo[1,5-a]pyrazin-2-yl)amino)pyrimidin-4-yl)benzyl)pyrrolidine-1-carboxamide]", "values": [{"measurement": "pIC50", "setting": "BTK enzyme", "value": "> 8.00"}, {"measurement": "pIC50", "setting": "[1]", "value": "> 6.30"}]}, {"smiles": "Cc1cc(-c2cc(Nc3cc4n(n3)CCN(C)C4)ncn2)ccc1CNC(=O)N1CC[C@H](C(C)(C)C)C1", "note": "[Example I-245, (R)-3-(tert-butyl)-N-(2-methyl-4-(6-((5-methyl-4,5,6,7-tetrahydropyrazolo[1,5-a]pyrazin-2-yl)amino)pyrimidin-4-yl)benzyl)pyrrolidine-1-carboxamide]", "values": [{"measurement": "pIC50", "setting": "BTK enzyme", "value": "> 8.00"}, {"measurement": "pIC50", "setting": "[1]", "value": "> 6.30"}]}, {"smiles": "CCn1cc(Nc2nccc(-c3ccc(CNC(=O)c4cnn(C(C)(C)C)c4)c(C)c3)n2)cn1", "note": "[Example I-247, 1-(tert-butyl)-N-(4-(2-((1-ethyl-1H-pyrazol-4-yl)amino)pyrimidin-4-yl)-2-methylbenzyl)-1H-pyrazole-4-carboxamide]", "values": [{"measurement": "pIC50", "setting": "BTK enzyme", "value": "> 8.00"}, {"measurement": "pIC50", "setting": "[1]", "value": "> 6.30"}]}, {"smiles": "Cn1cc(Nc2nccc(-c3ccc4c(c3)CCNCC4NC(=O)N3CC(OC(C)(C)C)C3)n2)cn1", "note": "(stereo not drawn) [Example I-248, 3-(tert-butoxy)-N-(7-(2-((1-methyl-1H-pyrazol-4-yl)amino)pyrimidin-4-yl)-2,3,4,5-tetrahydro-H-benzo[d]azepin-1-yl)azetidine-1-carboxamide]", "values": [{"measurement": "pIC50", "setting": "BTK enzyme", "value": "> 8.00"}, {"measurement": "pIC50", "setting": "[1]", "value": "> 6.30"}]}, {"smiles": "Cc1cc(-c2ccnc(Nc3cnn(C)c3)n2)ccc1CN1CCN(CC(C)C)CC1=O", "note": "[Example I-249, 4-isobutyl-1-(2-methyl-4-(2-((1-methyl-1H-pyrazol-4-yl)amino)pyrimidin-4-yl)benzyl)piperazin-2-one]", "values": [{"measurement": "pIC50", "setting": "BTK enzyme", "value": "> 8.00"}, {"measurement": "pIC50", "setting": "[1]", "value": "> 6.30"}]}, {"smiles": "Cc1cc(-c2ccnc(Nc3cnn(CCO)c3)n2)ccc1CNC(=O)c1cnn(C(C)(C)C)c1", "note": "[Example I-250, 1-tert-butyl-N-[[4-[2-[[1-(2-hydroxyethyl)pyrazol-4-yl]amino]pyrimidin-4-yl]-2-methyl-phenyl]methyl]pyrazole-4-carboxamide]", "values": [{"measurement": "pIC50", "setting": "BTK enzyme", "value": "> 8.00"}, {"measurement": "pIC50", "setting": "[1]", "value": "> 6.30"}]}, {"smiles": "Cc1cc(-c2cc(Nc3ccc(N4CCN(C)CC4)cn3)ncn2)ccc1CNC(=O)N1CC(OC(C)(C)C)C1", "note": "[Example I-251, 3-tert-butoxy-N-[[2-methyl-4-[6-[[5-(4-methylpiperazin-1-yl)-2-pyridyl]amino]pyrimidin-4-yl]phenyl]methyl]azetidine-1-carboxamide]", "values": [{"measurement": "pIC50", "setting": "BTK enzyme", "value": "> 8.00"}, {"measurement": "pIC50", "setting": "[1]", "value": "> 6.30"}]}, {"smiles": "Cc1cc(-c2ccnc(Nc3cnn(C)c3)n2)ccc1CNC(=O)c1ccn(C(C)(C)C)n1", "note": "[Example I-252, 1-tert-butyl-N-[[2-methyl-4-[2-[(1-methylpyrazol-4-yl)amino]pyrimidin-4-yl]phenyl]methyl]pyrazole-3-carboxamide]", "values": [{"measurement": "pIC50", "setting": "BTK enzyme", "value": "> 8.00"}, {"measurement": "pIC50", "setting": "[1]", "value": "> 6.30"}]}, {"smiles": "Cc1cc(-c2ccnc(Nc3cnn(C)c3)n2)ccc1CNC(=O)N1CC[C@H](C(C)(C)C)C1", "note": "[Example I-253, (3R)-3-tert-butyl-N-[[2-methyl-4-[2-[(1-methylpyrazol-4-yl)amino]pyrimidin-4-yl]phenyl]methyl]pyrrolidine-1-carboxamide]", "values": [{"measurement": "pIC50", "setting": "BTK enzyme", "value": "> 8.00"}, {"measurement": "pIC50", "setting": "[1]", "value": "> 6.30"}]}, {"smiles": "Cc1cc(-c2ccnc(Nc3cnn(C)c3)n2)ccc1CNC(=O)N1CC[C@@H](C(C)(C)C)C1", "note": "[Example I-254]", "values": [{"measurement": "pIC50", "setting": "BTK enzyme", "value": "> 8.00"}, {"measurement": "pIC50", "setting": "[1]", "value": "> 6.30"}]}, {"smiles": "Cc1cc(-c2ccnc(Nc3cnn(C)c3)n2)ccc1CNC(=O)N1CC[C@@H](C(C)C)C1", "note": "[Example I-255, (3S)-3-isopropyl-N-[[2-methyl-4-[2-[(1-methylpyrazol-4-yl)amino]pyrimidin-4-yl]phenyl]methyl]pyrrolidine-1-carboxamide]", "values": [{"measurement": "pIC50", "setting": "BTK enzyme", "value": "> 8.00"}, {"measurement": "pIC50", "setting": "[1]", "value": "> 6.30"}]}, {"smiles": "Cc1cc(-c2cc(Nc3cc4n(n3)CCN(C)C4)ncn2)ccc1CNC(=O)N1CC(OC(C)(C)C)C1", "note": "[Example I-256, 3-tert-butoxy-N-[[2-methyl-4-[6-[(5-methyl-6,7-dihydro-4H-pyrazolo[1,5-a]pyrazin-2-yl)amino]pyrimidin-4-yl]phenyl]methyl]azetidine-1-carboxamide]", "values": [{"measurement": "pIC50", "setting": "BTK enzyme", "value": "> 8.00"}, {"measurement": "pIC50", "setting": "[1]", "value": "> 6.30"}]}, {"smiles": "Cc1cc(-c2ccnc(Nc3cnn(C(C)C)c3)n2)ccc1CNC(=O)c1cnn(C(C)(C)C)c1", "note": "[Example I-258, 1-tert-butyl-N-[[4-[2-[(1-isopropylpyrazol-4-yl)amino]pyrimidin-4-yl]-2-methyl-phenyl]methyl]pyrazole-4-carboxamide]", "values": [{"measurement": "pIC50", "setting": "BTK enzyme", "value": "> 8.00"}, {"measurement": "pIC50", "setting": "[1]", "value": "> 6.30"}]}, {"smiles": "Cc1cc(-c2ccnc(Nc3cnn(C(C)C)c3)n2)ccc1CNC(=O)N1CC(OC(C)C)C1", "note": "[Example I-259, 3-isopropoxy-N-[[4-[2-[(1-isopropylpyrazol-4-yl)amino]pyrimidin-4-yl]-2-methyl-phenyl]methyl]azetidine-1-carboxamide]", "values": [{"measurement": "pIC50", "setting": "BTK enzyme", "value": "> 8.00"}, {"measurement": "pIC50", "setting": "[1]", "value": "> 6.30"}]}, {"smiles": "Cc1cc(-c2ccnc(Nc3cnn(C4CC4)c3)n2)ccc1CNC(=O)c1cnn(C(C)(C)C)c1", "note": "[Example I-260, 1-tert-butyl-N-[[4-[2-[(1-cyclopropylpyrazol-4-yl)amino]pyrimidin-4-yl]-2-methyl-phenyl]methyl]pyrazole-4-carboxamide]", "values": [{"measurement": "pIC50", "setting": "BTK enzyme", "value": "> 8.00"}, {"measurement": "pIC50", "setting": "[1]", "value": "> 6.30"}]}, {"smiles": "CCCC1CN(C(=O)NCc2ccc(-c3ccnc(Nc4cnn(C)c4)n3)cc2C)C1", "note": "[Example I-263, N-[[2-methyl-4-[2-[(1-methylpyrazol-4-yl)amino]pyrimidin-4-yl]phenyl]methyl]-3-propyl-azetidine-1-carboxamide]", "values": [{"measurement": "pIC50", "setting": "BTK enzyme", "value": "> 8.00"}, {"measurement": "pIC50", "setting": "[1]", "value": "> 6.30"}]}, {"smiles": "Cc1cc(-c2cc(Nc3cc4n(n3)CCN(C)C4)ncn2)ccc1CNC(=O)c1cc(C(C)(C)C)on1", "note": "[Example I-265, 5-tert-butyl-N-[[2-methyl-4-[6-[(5-methyl-6,7-dihydro-4H-pyrazolo[1,5-a]pyrazin-2-yl)amino]pyrimidin-4-yl]phenyl]methyl]isoxazole-3-carboxamide]", "values": [{"measurement": "pIC50", "setting": "BTK enzyme", "value": "> 8.00"}, {"measurement": "pIC50", "setting": "[1]", "value": "> 6.30"}]}, {"smiles": "Cc1cc(-c2cc(Nc3ccc4c(n3)CCNC4)ncn2)ccc1CNC(=O)c1cnc(C(C)(C)C)s1", "note": "[Example I-266, 2-tert-butyl-N-[[2-methyl-4-[6-(5,6,7,8-tetrahydro-1,6-naphthyridin-2-ylamino)pyrimidin-4-yl]phenyl]methyl]thiazole-5-carboxamide]", "values": [{"measurement": "pIC50", "setting": "BTK enzyme", "value": "> 8.00"}, {"measurement": "pIC50", "setting": "[1]", "value": "> 6.30"}]}, {"smiles": "Cc1cc(-c2cc(Nc3cc4c(cn3)CNCC4)ncn2)ccc1CNC(=O)c1cnc(C(C)(C)C)s1", "note": "[Example I-267, 2-tert-butyl-N-[[2-methyl-4-[6-(5,6,7,8-tetrahydro-2,7-naphthyridin-3-ylamino)pyrimidin-4-yl]phenyl]methyl]thiazole-5-carboxamide]", "values": [{"measurement": "pIC50", "setting": "BTK enzyme", "value": "> 8.00"}, {"measurement": "pIC50", "setting": "[1]", "value": "> 6.30"}]}, {"smiles": "Cc1cc(-c2cc(Nc3cc4c(cn3)CN(CCO)CC4)ncn2)ccc1CNC(=O)c1cnc(C(C)(C)C)s1", "note": "[Example I-268, 2-tert-butyl-N-[[4-[6-[[7-(2-hydroxyethyl)-6,8-dihydro-5H-2,7-naphthyridin-3-yl]amino]pyrimidin-4-yl]-2-methyl-phenyl]methyl]thiazole-5-carboxamide]", "values": [{"measurement": "pIC50", "setting": "BTK enzyme", "value": "> 8.00"}, {"measurement": "pIC50", "setting": "[1]", "value": "> 6.30"}]}, {"smiles": "Cc1cc(-c2cc(Nc3cc4c(cn3)CN(C)CC4)ncn2)ccc1CNC(=O)c1cnc(C(C)(C)C)s1", "note": "[Example I-269, 2-tert-butyl-N-[[2-methyl-4-[6-[(7-methyl-6,8-dihydro-5H-2,7-naphthyridin-3-yl)amino]pyrimidin-4-yl]phenyl]methyl]thiazole-5-carboxamide]", "values": [{"measurement": "pIC50", "setting": "BTK enzyme", "value": "> 8.00"}, {"measurement": "pIC50", "setting": "[1]", "value": "> 6.30"}]}]}
